Columns and labels:
Experiment in all cases: -log10 GI50 (growth inhibition 50%) (-log10(M)); higher = more potent growth inhibition
SKBR3 = tested on: SKBR3
Summary of the method: (§1)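 Dose-response data came from breast cancer cell lines exposed to each compound for 72 hours at nine doses in 1:5 serial dilution, in triplicate, and read by luminescence relative to a time-zero plate. A Gompertz curve fitted by nonlinear least squares gave GI50, the molar concentration for the set level of growth inhibition, reported as its negative logarithm to base 10. Where a value equals the top dose, it carries a < qualifier.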

BT549 = tested on: BT549
Summary of the method: as §1

AU565 = tested on: AU565
Summary of the method: as §1

MX1 = tested on: MX1
Summary of the method: as §1

BT20 = tested on: BT20
Summary of the method: as §1

SUM229PE = tested on: SUM229PE
Summary of the method: as §1

CAMA1 = tested on: CAMA1
Summary of the method: as §1

HCC1806 = tested on: HCC1806
Summary of the method: as §1

SUM52PE = tested on: SUM52PE
Summary of the method: as §1

ZR75B = tested on: ZR75B
Summary of the method: as §1

MCF10F = tested on: MCF10F
Summary of the method: as §1

SUM149PT = tested on: SUM149PT
Summary of the method: as §1

MDAMB134VI = tested on: MDAMB134VI
Summary of the method: as §1

T47D_KBluc = tested on: T47D_KBluc
Summary of the method: as §1

MDAMB361 = tested on: MDAMB361
Summary of the method: as §1

UACC812 = tested on: UACC812
Summary of the method: as §1

ZR751 = tested on: ZR751
Summary of the method: as §1

HCC1569 = tested on: HCC1569
Summary of the method: as §1

MCF10A = tested on: MCF10A
Summary of the method: as §1

HCC1395 = tested on: HCC1395
Summary of the method: as §1

Structure (SMILES)	-log10 GI50 (SKBR3)	-log10 GI50 (BT549)	-log10 GI50 (AU565)	-log10 GI50 (MX1)	-log10 GI50 (BT20)	-log10 GI50 (SUM229PE)	-log10 GI50 (CAMA1)	-log10 GI50 (HCC1806)	-log10 GI50 (SUM52PE)	-log10 GI50 (ZR75B)	-log10 GI50 (MCF10F)	-log10 GI50 (SUM149PT)	-log10 GI50 (MDAMB134VI)	-log10 GI50 (T47D_KBluc)	-log10 GI50 (MDAMB361)	-log10 GI50 (UACC812)	-log10 GI50 (ZR751)	-log10 GI50 (HCC1569)	-log10 GI50 (MCF10A)	-log10 GI50 (HCC1395)
CCC[C@H](N[C@H]1CCc2cc(F)cc(F)c2C1)C(=O)Nc1cn(C(C)(C)CNCC(C)(C)C)cn1	4.91	< 4.18	4.98	5.76	4.76	< 4.18	< 4.18	< 4.18	5.24	< 4.18	< 4.18	6.88	4.33	< 4.18	4.41	< 4.18	4.72	4.27	< 4.18	< 4.18
COc1ccc(-c2cc3c(C)nc(N)nc3n([C@H]3CC[C@H](OCCO)CC3)c2=O)cn1	7.33	6.38	7.51	7.41	5.44	6.25	6.74	6.43	7.26	7.28	6.8	7.08	6.8	7.25	7.36	7.74	7.62	6.78	6.69	7.02
COc1ncc(-c2ccc3nccc(-c4ccnnc4)c3c2)cc1NS(=O)(=O)c1ccc(F)cc1F	8.41	7.32	8.1	8.39	7.8	8.59	7.08	7.54	8.46	8.31	8.67	7.64	7.97	7.71	8.82	8.49	8.09	7.75	8.1	7.31
O=C(O)c1ccc(-c2c[nH]c3ncc(-c4ccccc4)cc23)cc1C1CCCC1	< 4.48	< 4.48	< 4.48	4.45	< 4.48	5.8	< 4.18	< 4.18	< 4.48	< 4.18	4.59	< 4.18	< 4.18	< 4.18	< 4.18	< 4.18	< 4.18	< 4.18	5.55	< 4.18
O=C1C(Cl)=C(NCCN2CCOCC2)C(=O)c2ncccc21	5.86	5.8	5.81	6.17	5.49	5.26	5.59	5.61	5.62	5.26	5.6	5.69	5.22	5.38	5.27	5.6	5.76	5.36	5.65	6.15
Cn1cnc2c(F)c(Nc3ccc(Br)cc3Cl)c(C(=O)NOCCO)cc21 [AZD6244]	< 4.3	< 4.3	< 4.3	6.34	< 4.3	7.13	< 4.3	< 4.3	5.01	< 4.3	5.62	6.32	6.2	< 4.3	< 4.3	< 4.3	4.75	< 4.3	6.71	4.42
O=c1[nH]c2ccccc2n1C1CCN(Cc2ccc(-c3[nH]c4cc5ncnc5cc4nc3-c3ccccc3)cc2)CC1 [Akt inhibitor VIII]	5.68	5.08	5.61	5.45	5.09	4.94	5.17	5.05	5.85	5.93	5.42	4.96	5.05	5.31	6.06	5.45	6.13	5.07	5.34	5.25
Cn1c(=O)n(-c2ccc(C(C)(C)C#N)cc2)c2c3cc(-c4cnc5ccccc5c4)ccc3ncc21 [BEZ235]	< 4.48	< 4.48	6.59	< 4.48	5.6	6.67	6.67	< 4.48	5.51	6.85	< 4.48	6.5	< 4.48	< 4.48	6.68	5.69	5.74	6.33	7.26	< 4.48
O=c1cc(-c2ccccc2)oc2cc(O)c(O)c(O)c12 [Baicalein]	3.96	4.64	4.38	4.66	4.05	4.08	4.39	4.73	4.42	4.36	< 3.78	4.29	4.07	4	< 3.78	4.19	4.38	4.33	4.71	4.73
COc1cc(Nc2c(C#N)cnc3cc(OCCCN4CCN(C)CC4)c(OC)cc23)c(Cl)cc1Cl [Bosutinib]	5.41	5.95	5.67	6.38	5.89	5.88	5.11	5.69	5.85	5.15	5.75	6.13	< 4	< 4.48	5.9	5.56	4.94	5.76	5.85	5.93
C#Cc1cccc(Nc2ncnc3cc(OCCOC)c(OCCOC)cc23)c1 [Erlotinib]	4.8	4.39	4.93	5.16	5.7	4.95	< 4.18	5.37	4.98	< 4.18	6.54	5.7	< 4.18	< 4.18	< 4.18	4.91	< 4.18	4.78	5.97	4.53

Source: the supplement of paper PMC3937590
